Reference: patent US12227494B2, “Polymorphisms of HM30181 mesylate” (ATHENEX R&D, LLC, priority 2020, dated 2025)

Assay: Polymorph screening (slurry, liquid vapor diffusion, cooling, evaporation, anti-solvent, large scale) with crystal type by XRPD
Type: physicochemical
Conditions: for Observations: large scale (200 mg)
Method: Slurry-based generation and/or screening for HM30181 mesylate polymorphs was performed by preparing slurries of starting material HM30181 mesylate Type A in a variety of solvents and under a variety of conditions as described below. The resulting solids were analyzed by XRPD and identified for physical state.
Generation and/or screening of HM30181 mesylate polymorphs was also performed by preparing HM30181 mesylate Type A starting material for liquid and solid vapor diffusion as described below. Resulting solids were analyzed by XRPD and identified for physical state. Liquid vapor diffusion of MTBE into NMP solution yielded HM30181 mesylate Type D (see FIG. 21). Liquid vapor diffusion of MEK into NMP or DMA solution yielded HM30181 mesylate Type D (see FIG. 21). […] Liquid vapor diffusion of 2-MeTHF into DMA or DMF solution yielded HM30181 mesylate Type E (see FIG. 22). Liquid vapor diffusion of MTBE into DMA solution yielded HM30181 mesylate Type E, with a few additional diffraction peaks, which Inventors believe are attributable to HM30181 mesylate Type I (see FIGS. 4 to 8). Liquid vapor diffusion of ACN into DMSO solution yielded HM30181 mesylate Type H (see FIG. 23). Liquid vapor diffusion of Acetone, Ethyl Acetate, or isopropyl acetate into DMA solution yielded HM30181 mesylate Type I (see FIG. 24).
Generation and/or screening of HM30181 mesylate polymorphs by cooling was carried out by treating HM30181 mesylate Type A starting material using gradual or rapid (i.e. crash) cooling as described below. The resulting solids were analyzed by XRPD and identified for physical state.
HM30181 mesylate was also subjected to evaporation methods by treating HM30181 mesylate Type A starting material as described below. The resulting solids were analyzed by XRPD and identified for physical state.
Generation and/or screening of HM30181 mesylate polymorphs by treatment with anti-solvents was performed by treating HM30181 mesylate Type A starting material as described below. The resulting solids were analyzed by XRPD and identified for physical state. Anti-solvent studies in DMSO yielded HM30181 mesylate Type C (see FIG. 26). Anti-solvent studies in N,N-dimethylacetamide with methyl t-butyl ether yielded a HM30181 mesylate Type F polymorphism (see FIG. 27). Anti-solvent addition and reverse anti-solvent addition in DMSO/EtOAc, DMA/MIBK, DMA/toluene and NMP/t-BuOH yielded primarily amorphous content and a polymorphism with some similarity to HM30181 mesylate Type J (see FIG. 28). Other anti-solvent studies in DMSO and DMF yielded a HM30181 mesylate Type K polymorphism (or possibly a mixture of types, see FIG. 29). Anti-solvent experiments in DMF/n-propanol and DMA/isopropanol yielded a HM30181 mesylate Type L polymorphism (see FIG. 30). Anti-solvent addition DMF/Toluene and DMA/t-BuOH were mostly amorphous, but also generated HM30181 mesylate Type M (see FIG. 31).
Large scale studies were performed with HM30181 mesylate Type A starting material on a 200 mg scale as described below. Solids were isolated by vacuum filtration. The wet cakes from filtration from DMA, DMF, and NMP slurries were washed with 1 mL to 2 mL methanol to remove solvents. Solids were then vacuum dried at 80° C. overnight.
Screening of polymorphisms of HM30181 mesylate can include preparation of a slurry. Typically, a slurry was prepared by suspending 5 mg to 20 mg of sample in 0.1 mL to 0.5 mL solvent in a 1.5 mL or 3.0 mL glass vial. The suspension a was stirred at target temperature (e.g. 4° C., ambient temperature, 50° C.) at 200 rpm. Solids for X-ray powder diffraction (XRPD) analysis were separated by centrifuging at 14,000 rpm for 5 minutes at ambient temperature. If no solid or gel is obtained, the slurry can be move to a fume hood for evaporation of the solvent.
In some embodiments anti-solvent addition was used. […]

## COc1cc2c(cc1OC)CN(CCc1ccc(-n3nnc(-c4cc(OC)c(OC)cc4NC(=O)c4cc(=O)c5ccccc5o4)n3)cc1)CC2.CS(=O)(=O)O [HM30181 mesylate Type A, HM30181 mesylate]
Crash Cooling 50° C.-->−20° C., CHCl3 4 mL, API 25.4 mg, Exp. 6007235-17-C10
  XRPD (wet cake): No solids
Crash Cooling 50° C.-->−20° C., DCM 10 mL, API 22.1 mg, Exp. 6007235-17-C13
  XRPD (wet cake): No solids
Crash Cooling 50° C.-->−20° C., DMA 4 mL, API 26.9 mg, Exp. 6007235-17-C15
  XRPD (wet cake): Amorphous
Crash Cooling 50° C.-->−20° C., DMF 4 mL, API 25.1 mg, Exp. 6007235-17-C16
  XRPD (wet cake): Amorphous
Crash Cooling 50° C.-->−20° C., EtOH 20 mL, API 5 mg, Exp. 6007235-17-C11
  XRPD (wet cake): No solids
Crash Cooling 50° C.-->−20° C., MeOH 10 mL, API 22.9 mg, Exp. 6007235-17-C9
  XRPD (wet cake): No solids
Crash Cooling 50° C.-->−20° C., NMP 4 mL, API 26.2 mg, Exp. 6007235-17-C14
  XRPD (wet cake): Amorphous
Crash cooling 50° C.-->−20° C., ACN 10 mL, API 12.6 mg, Exp. 6007235-17-C12
  XRPD (wet cake): Type C
Slow Cooling 50° C.-->4° C., ACN 10 mL, API 12.6 mg, Exp. 6007235-17-C4
  XRPD (wet cake): Type C
Slow Cooling 50° C.-->4° C., DMF 4 mL, API 25.1 mg, Exp. 6007235-17-C8
  XRPD (wet cake): No solids
Slow Cooling 50° C.-->4° C., EtOH 20 mL, API 5 mg, Exp. 6007235-17-C3
  XRPD (wet cake): No solids
Slow Cooling 50° C.-->4° C., MeOH 20 mL, API 24.7 mg, Exp. 6007235-17-C1
  XRPD (wet cake): No solids
Slow Cooling 50° C.-->4° C., NMP 4 mL, API 20.9 mg, Exp. 6007235-17-C6
  XRPD (wet cake): No solids
anti-solvent (Table 13), solvent CHCl3, anti-solvent EtOH 10 mL, NB 6004273-06-A102
  Identification: Type A
anti-solvent (Table 13), solvent CHCl3, anti-solvent MTBE 10 mL, NB 6004273-06-A103
  Identification: Type A
anti-solvent (Table 13), solvent CHCl3, anti-solvent n-Heptane 10 mL, NB 6004273-06-A104
  Identification: Type A
anti-solvent (Table 13), solvent DMSO, anti-solvent Toluene 10 mL, NB 6004273-06-A106
  Identification: Amorphous
anti-solvent, solvent CHCl3, anti-solvent 2-MeTHF 10 mL, NB 6004273-06-A27
  Identification: Type A
anti-solvent, solvent CHCl3, anti-solvent ACN 10 mL, NB 6004273-06-A30
  Identification: Type A
anti-solvent, solvent CHCl3, anti-solvent Acetone 10 mL, NB 6004273-06-A22
  Identification: Type A
anti-solvent, solvent CHCl3, anti-solvent CPME 10 mL, NB 6004273-06-A42
  Identification: Type A
anti-solvent, solvent CHCl3, anti-solvent Cyclohexane 10 mL, NB 6004273-06-A35
  Identification: Type A
anti-solvent, solvent CHCl3, anti-solvent DCM 10 mL, NB 6004273-06-A31
  Identification: Type A
anti-solvent, solvent CHCl3, anti-solvent EtOAc 10 mL, NB 6004273-06-A24
  Identification: Type A
anti-solvent, solvent CHCl3, anti-solvent Ethanol 10 mL, NB 6004273-06-A20
  Identification: Type A
anti-solvent, solvent CHCl3, anti-solvent Ethyl formate 10 mL, NB 6004273-06-A40
  Identification: Type A
anti-solvent, solvent CHCl3, anti-solvent IPA 10 mL, NB 6004273-06-A21
  Identification: Type A
anti-solvent, solvent CHCl3, anti-solvent MEK 10 mL, NB 6004273-06-A36
  Identification: Type A
anti-solvent, solvent CHCl3, anti-solvent MIBK 10 mL, NB 6004273-06-A23
  Identification: Type A
anti-solvent, solvent CHCl3, anti-solvent MTBE 10 mL, NB 6004273-06-A29
  Identification: Type A
anti-solvent, solvent CHCl3, anti-solvent MeOAc 10 mL, NB 6004273-06-A34
  Identification: Type A
anti-solvent, solvent CHCl3, anti-solvent THF 10 mL, NB 6004273-06-A26
  Identification: Type A
anti-solvent, solvent CHCl3, anti-solvent Toluene 10 mL, NB 6004273-06-A32
  Identification: Type A
anti-solvent, solvent CHCl3, anti-solvent iBuOAc 10 mL, NB 6004273-06-A41
  Identification: Type A
anti-solvent, solvent CHCl3, anti-solvent iPrOAc 10 mL, NB 6004273-06-A25
  Identification: Type A
anti-solvent, solvent CHCl3, anti-solvent n-Heptane 10 mL, NB 6004273-06-A33
  Identification: Type A
anti-solvent, solvent CHCl3, anti-solvent n-Propanol 10 mL, NB 6004273-06-A38
  Identification: Type A
anti-solvent, solvent CHCl3, anti-solvent n-Propyl acetate 10 mL, NB 6004273-06-A39
  Identification: Type A
anti-solvent, solvent CHCl3, anti-solvent t-Butanol 10 mL, NB 6004273-06-A37
  Identification: Type A
anti-solvent, solvent DMA, anti-solvent t-Butanol 20 mL, NB 6004273-06-A97
  Identification: Type M
anti-solvent, solvent DMF, anti-solvent EtOAc 10 mL, NB 6004273-06-A47
  Identification: Type A
anti-solvent, solvent DMF, anti-solvent EtOH 20 mL, NB 6004273-06-A43
  Identification: Amorphous
anti-solvent, solvent DMF, anti-solvent IPA 10 mL, NB 6004273-06-A44
  Identification: Type K
anti-solvent, solvent DMF, anti-solvent MIBK 10 mL, NB 6004273-06-A46
  Identification: Amorphous
anti-solvent, solvent DMF, anti-solvent MTBE 10 mL, NB 6004273-06-A52
  Identification: Type A
anti-solvent, solvent DMF, anti-solvent Toluene 10 mL, NB 6004273-06-A56
  Identification: Type M
anti-solvent, solvent DMF, anti-solvent n-Propyl acetate 10 mL, NB 6004273-06-A61
  Identification: Type A
anti-solvent, solvent DMSO, anti-solvent 2-MeTHF 10 mL, NB 6004273-06-A8
  Identification: Amorphous
anti-solvent, solvent DMSO, anti-solvent ACN 20 mL, NB 6004273-06-A11
  Identification: Type C
anti-solvent, solvent DMSO, anti-solvent Acetone 10 mL, NB 6004273-06-A3
  Identification: Type K
anti-solvent, solvent DMSO, anti-solvent CHCl3 20 mL, NB 6004273-06-A13
  Identification: Type K
anti-solvent, solvent DMSO, anti-solvent EtOH 20 mL, NB 6004273-06-A1
  Identification: Type K
anti-solvent, solvent DMSO, anti-solvent MIBK 10 mL, NB 6004273-06-A4
  Identification: Type K
anti-solvent, solvent DMSO, anti-solvent MTBE 20 mL, NB 6004273-06-A10
  Identification: Amorphous
anti-solvent, solvent DMSO, anti-solvent Toluene 10 mL, NB 6004273-06-A14
  Identification: Amorphous
anti-solvent, solvent DMSO, anti-solvent n-Propanol 10 mL, NB 6004273-06-A18
  Identification: Type K
anti-solvent, solvent DMSO, anti-solvent n-Propyl acetate 10 mL, NB 6004273-06-A19
  Identification: Type K
anti-solvent, solvent DMSO, anti-solvent t-Butanol 10 mL, NB 6004273-06-A17
  Identification: Type K
anti-solvent, solvent NMP, anti-solvent 1,4-Dioxane 20 mL, NB 6004273-06-A70
  Identification: Type A
anti-solvent, solvent NMP, anti-solvent MEK 20 mL, NB 6004273-06-A77
  Identification: Amorphous
Anti-solvent addition, DMA 20 mL, 5 mg/mL, anti-solvent t-BuOH 200 mL, Desired Type M, NB 6004273-10-M
  Observations: Amorphous
Anti-solvent addition, DMF 20 mL, 5 mg/mL, anti-solvent Toluene 300 mL, Desired Type M, NB 6004273-10-M1
  Observations: Amorphous
Anti-solvent addition, DMF 20 mL, 5 mg/mL, anti-solvent n-propanol 200 mL, Desired Type L, NB 6004273-10-L
  Observations: Amorphous
Anti-solvent addition, DMSO 10 mL, 60 mg/mL, anti-solvent MIBK 200 mL, Desired Type K, NB 6004273-10-K
  Observations: Amorphous
Slurry at 50° C., DMF 0.2 mL, 576 mg/mL, Desired Type G, NB 6004273-10-G
  Observations: Type F
Slurry at 100° C. (for 2 days), DMF 0.2 mL, 595 mg/mL, Desired Type G, NB 6004273-10-F-100C
  Observations: Type F
Slurry at 150° C. (for 5 d), DMF 0.2 mL, 595 mg/mL, Desired Type G, NB 6004273-10-F-150C
  Observations: Decomposition
Slurry at ambient temperature, DMA 0.2 mL, 576 mg/mL, Desired Type E, NB 6004273-10-E
  Observations: Type E
Slurry at ambient temperature, DMF 0.2 mL, 595 mg/mL, Desired Type F, NB 6004273-10-F
  Observations: Type A
Slurry at ambient temperature, MeCN 0.2 mL, 545 mg/mL, Desired Type C, NB 6004273-10-C
  Observations: Type C
Slurry at ambient temperature, MeOH 0.2 mL, 480 mg/mL, Desired Type B, NB 6004273-10-B
  Observations: Type N
Slurry at ambient temperature, NMP 0.2 mL, 550 mg/mL, Desired Type D, NB 6004273-10-D
  Observations: Amorphous
